Data from patent publication US20250313575A1, “MACROCYCLES AS LRRK2 INHIBITORS, PHARMACEUTICAL COMPOSITIONS, AND USES THEREOF” (Merck Sharp & Dohme LLC, priority 2022, published 2025).
Counter-ions that a name gives are not always drawn.

Target: GST-tagged truncated human mutant G2019S LRRK2 (Homo sapiens (Human), UniProt Q5S007, G2019S)
Assay: LRRK2 G2019S Km ATP LanthaScreen assay
Assay type: biochemical
Conditions: G2019S LRRK2, 134 μM ATP (Km ATP), LRRKtide substrate; for IC50: read-out: LRRK2 pIC50 (converted)
How it was run: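 TR-FRET assay with GST-tagged truncated human G2019S LRRK2 (1.25 nM), preincubated with compound 15 min, then reacted with fluorescein-LRRKtide and 134 μM ATP (Km) in Tris pH 8.5 buffer, 90 min, ambient temperature. Tb-anti-phospho-LRRKtide detection, 520/495 nm ratio; IC50 by 4-parameter logistic fit, top concentration 9.99 μM in DMSO, 10 points.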

Chain of GST-tagged truncated human mutant G2019S LRRK2 (Q5S007 970-2527 G2019S): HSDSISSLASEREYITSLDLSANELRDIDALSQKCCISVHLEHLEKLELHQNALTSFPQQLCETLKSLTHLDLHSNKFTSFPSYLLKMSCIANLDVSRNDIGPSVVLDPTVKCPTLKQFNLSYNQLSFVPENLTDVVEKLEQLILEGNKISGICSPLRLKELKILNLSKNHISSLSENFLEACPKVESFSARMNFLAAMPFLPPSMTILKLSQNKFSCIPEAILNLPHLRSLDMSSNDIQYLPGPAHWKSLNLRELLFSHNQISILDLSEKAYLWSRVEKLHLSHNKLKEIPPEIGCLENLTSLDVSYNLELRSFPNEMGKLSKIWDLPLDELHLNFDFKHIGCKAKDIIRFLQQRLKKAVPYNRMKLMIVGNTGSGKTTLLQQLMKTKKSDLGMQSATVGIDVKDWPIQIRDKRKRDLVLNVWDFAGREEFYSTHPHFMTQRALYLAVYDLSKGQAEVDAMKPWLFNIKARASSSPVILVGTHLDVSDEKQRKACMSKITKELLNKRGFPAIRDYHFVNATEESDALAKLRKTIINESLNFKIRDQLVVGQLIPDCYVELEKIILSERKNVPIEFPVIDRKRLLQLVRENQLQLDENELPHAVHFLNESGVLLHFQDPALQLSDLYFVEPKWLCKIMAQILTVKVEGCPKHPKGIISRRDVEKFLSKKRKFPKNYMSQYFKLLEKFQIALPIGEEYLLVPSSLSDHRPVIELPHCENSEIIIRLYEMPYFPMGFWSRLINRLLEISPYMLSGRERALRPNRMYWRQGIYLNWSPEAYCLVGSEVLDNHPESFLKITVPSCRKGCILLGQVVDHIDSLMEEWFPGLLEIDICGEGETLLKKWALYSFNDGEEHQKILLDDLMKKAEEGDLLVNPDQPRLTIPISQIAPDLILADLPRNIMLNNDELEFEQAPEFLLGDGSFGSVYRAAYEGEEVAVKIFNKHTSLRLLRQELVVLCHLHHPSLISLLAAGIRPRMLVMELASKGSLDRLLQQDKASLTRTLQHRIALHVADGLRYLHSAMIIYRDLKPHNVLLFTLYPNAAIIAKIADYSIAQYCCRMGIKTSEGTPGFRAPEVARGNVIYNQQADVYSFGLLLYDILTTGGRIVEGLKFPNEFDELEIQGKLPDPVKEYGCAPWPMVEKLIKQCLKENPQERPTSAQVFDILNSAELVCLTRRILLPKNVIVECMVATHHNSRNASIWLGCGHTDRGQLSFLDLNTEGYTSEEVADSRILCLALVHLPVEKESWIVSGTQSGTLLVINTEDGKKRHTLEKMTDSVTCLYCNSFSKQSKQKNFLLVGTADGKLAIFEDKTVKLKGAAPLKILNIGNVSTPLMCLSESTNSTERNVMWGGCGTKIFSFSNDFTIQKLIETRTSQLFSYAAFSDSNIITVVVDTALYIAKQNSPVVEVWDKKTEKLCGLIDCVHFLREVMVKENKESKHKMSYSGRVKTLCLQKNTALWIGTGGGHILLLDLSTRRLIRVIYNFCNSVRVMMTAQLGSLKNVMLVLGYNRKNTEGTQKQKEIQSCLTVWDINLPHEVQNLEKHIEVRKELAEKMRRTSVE

Compound	LRRK2 pIC50	IC50
COC1CCC1n1nc(C)c2c1Nc1ncc(C(F)(F)F)c(n1)NC1COCC1CO2 [Ex-2.41, (10aS,13aS)-3-((1R,2R)-(10aS,13aS)-3-((1S,2R)-(10aS,13aS)-3-((1R,2S)-(10aS,13aS)-3-((1R,2R)-(10aR,13aR)-3-((1S,2R)-(10aR,13aR)-3-((1R,2S)-2-methoxycyclobutyl)-1-methyl-8-(trifluoromethyl)-3,4,10a,11,13a,14-hexahydro-10H,13H-5,9-(azeno)furo[3,4-k]pyrazolo[4,3-b][1]oxa[4,6,10]triazacyclotridecine]	6.51	
Cc1nn(C2CCC2)c2c1OC[C@H]1CC(F)(F)C[C@@H]1Nc1nc(ncc1C(F)(F)F)N2 [Ex-4.1, 3-Cyclobutyl-12,12-difluoro-1-methyl-8-(trifluoromethyl)-3,4,10a,11,12,13,13a,14-octahydro-10H-5,9-(azeno)cyclopenta[k]pyrazolo[4,3-b][1]oxa[4,6,10]triazacyclotridecine]	6.25	
Cc1nn(C2CC2)c2c1OC[C@@H]1COC[C@H]1Nc1nc(ncc1Cl)N2 [Ex-2.55, (10aS,13aS)-8-chloro-3-cyclopropyl-1-methyl-3,4,10a,11,13a,14-hexahydro-10H,13H-5,9-(azeno)furo[3,4-k]pyrazolo[4,3-b][1]oxa[4,6,10]triazacyclotridecine]	8.94	
Cc1nn2c(c1C)Nc1ncc(C(F)(F)F)c(n1)N[C@@H](C)CCC2 (single isomer, unassigned) [Ex-16.2, 8,14,15-Trimethyl-5-(trifluoromethyl)-8,9,10,11-tetrahydro-1H,7H-2,6-(azeno)pyrazolo[1,5-a][1,3,5,9]tetraazacyclotridecine]		631 pM
CC(C)c1nn(C(C)(C)CO)c2c1Nc1ncc(C(F)(F)F)c(n1)N[C@@H]1COC[C@H]1CO2 [Ex-7.5, 2-((10aS,13aS)-3-isopropyl-8-(trifluoromethyl)-10a,11,13a,14-tetrahydro-10H,13H-5,9-(azeno)furo[3,4-k]pyrazolo[3,4-b][1]oxa[4,6,10]triazacyclotridecin-1(4H)-yl)-2-methylpropan-1-ol]	>10.09	
Cc1nn(C2CC2)c2c1OC[C@@H]1CC[C@H]1Oc1nc(ncc1C(F)(F)F)N2 [Ex-14.1, (10aR,13aS)- or (10aS,13aR)-3-Cyclopropyl-1-methyl-8-(trifluoromethyl)-3,4,10a,11,12a,13-hexahydro-12H-5,9-(azeno)cyclobuta[k]pyrazolo[4,3-b][1,10]dioxa[4,6]diazacyclotridecine]	8.78	
Cc1nn(C2CCC2)c2c1OC[C@@H]1CN(C[C@H]1C)c1nc(ncc1C(F)(F)F)N2 (single isomer, unassigned) [Ex-20.2, (6S,7S)- or (6R,7R)-1-Cyclobutyl-3,7-dimethyl-11-(trifluoromethyl)-1,5,6,7,8,15-hexahydro-10,14-(azeno)-6,9-methanopyrazolo[4,3-b][1]oxa[4,6,10]triazacyclotetradecine]	9.39	
Cc1nn(C2CC2)c2c1O[C@@H]1CC[C@@H]1CNc1nc(ncc1C(F)(F)F)N2 [Ex-2.85, (11aR,13aR)- or (11aS,13aS)-3-cyclopropyl-1-methyl-8-(trifluoromethyl)-3,4,10,11,11a,12,13,13a-octahydro-5,9-(azeno)cyclobuta[I]pyrazolo[4,3-b][1]oxa[4,6,10]triazacyclotridecine]	8.74	
FC(F)(F)c1cnc2nc1N[C@@H]1COC[C@H]1COc1ccnc(Cl)c1N2 [Ex-15.5, (3aS,16aS)-11-chloro-6-(trifluoromethyl)-3a,4,16,16a-tetrahydro-1H,3H,10H-5,9-(azeno)furo[3,4-k]pyrido[4,3-b][1]oxa[4,6,10]triazacyclotridecine]	9.90	
O[C@@H]1COCC1n1nc(C2CC2)c2c1OC[C@H]1CC[C@@H]1Nc1nc(ncc1C(F)(F)F)N2 (single isomer, unassigned) [Ex-6.3, (3R,4S)-4-((10aR,12aR)- or (3R,4S)-4-((10aS,12aS)- or (3S,4R)-4-((10aR,12aR)- or (3S,4R)-4-((10aR,12aR)-3-cyclopropyl-8-(trifluoromethyl)-10,10a,11,12,12a,13-hexahydro-5,9-(azeno)cyclobuta[k]pyrazolo[3,4-b][1]oxa[4,6,10]triazacyclotridecin-1 (4H)-yl)tetrahydrofuran-3-ol]	7.29	
Cc1nn(C)c2c1OCC1(CC1)CNc1nc(ncc1C(F)(F)F)N2 [Ex-2.5, 1′,3′-dimethyl-10′-(trifluoromethyl)-1′,7′,8′,14′-tetrahydro-5′H-spiro[cyclopropane-1,6′-[9,13](azeno)pyrazolo[4,3-b][1]oxa[4,6,10]triazacyclotridecine]]	>10.09	
Cc1nn(C2CCC2)c2c1OC[C@@H]1CC[C@H]1Nc1cc(ncc1F)N2 [Ex-13.7, (10aR,12aR)-3-cyclobutyl-8-fluoro-1-methyl-3,4,10,10a,11,12,12a,13-octahydro-5,9-(metheno)cyclobuta[k]pyrazolo[4,3-b][1]oxa[4,6,10]triazacyclotridecine]	5.02	
Cc1nn(C2CCC2)c2c1OC[C@H]1COC[C@@H]1Nc1cc(ncc1C(F)(F)F)N2 [Ex-13.2, (10aR,13aR)-3-cyclobutyl-1-methyl-8-(trifluoromethyl)-3,4,10a,11,13a,14-hexahydro-10H,13H-5,9-(metheno)furo[3,4-k]pyrazolo[4,3-b][1]oxa[4,6,10]triazacyclotridecine]	7.01	
Cn1nc(C(F)(F)F)c2c1OC[C@@H]1CC[C@H]1Nc1nc(ncc1Cl)N2 [Ex-1.19, (10aR,12aR)-8-chloro-1-methyl-3-(trifluoromethyl)-1,4,10,10a,11,12,12a,13-octahydro-5,9-(azeno)cyclobuta[k]pyrazolo[3,4-b][1]oxa[4,6,10]triazacyclotridecine]	9.87	
Cc1nn(C2CCC2)c2c1CC[C@@H]1COC[C@H]1Nc1nc(ncc1C(F)(F)F)N2 (single isomer, unassigned) [Ex-12.2, (10aS,13aS)- or (10aR,13aR)-3-Cyclobutyl-1-methyl-8-(trifluoromethyl)-3,4,10a,11,13,13a,14,15-octahydro-10H-5,9-(azeno)furo[3,4-h]pyrazolo[4,3-l][1,3,7]triazacyclotridecine]		240 pM
Cc1nn(C2CCC2)c2c1OC[C@@H]1COC[C@H]1Nc1cc(ncc1C(F)(F)F)N2 [Ex-13.1, (10aR,13aR)-3-Cyclobutyl-1-methyl-8-(trifluoromethyl)-3,4,10a,11,13a,14-hexahydro-10H,13H-5,9-(metheno)furo[3,4-k]pyrazolo[4,3-b][1]oxa[4,6,10]triazacyclotridecine, TFA]	>10.09	
Cc1nn(C2CCC2)c2c1OCCC(C)Nc1nc(ncc1C(F)(F)F)N2 (single isomer, unassigned) [Ex-2.7, (R)- or (S)-1-cyclobutyl-3,7-dimethyl-10-(trifluoromethyl)-1,5,6,7,8,14-hexahydro-9,13-(azeno)pyrazolo[4,3-b][1]oxa[4,6,10]triazacyclotridecine]	7.21	
Cc1nn(C(C)C)c2c1OC[C@@H]1COC[C@H]1Nc1nc(ncc1C(F)(F)F)N2 [Ex-2.42, (10aS,13aS)-3-isopropyl-1-methyl-8-(trifluoromethyl)-3,4,10a,11,13a,14-hexahydro-10H,13H-5,9-(azeno)furo[3,4-k]pyrazolo[4,3-b][1]oxa[4,6,10]triazacyclotridecine]	9.93	
Cc1nn(C)c2c1OCC[C@@H](C)Nc1nc(ncc1C(F)(F)F)N2 (mixture of isomers) [Ex-2.2, (R)- and (S)-1,3,7-trimethyl-10-(trifluoromethyl)-1,5,6,7,8,14-hexahydro-9,13-(azeno)pyrazolo[4,3-b][1]oxa[4,6,10]triazacyclotridecine]	5.45	
CCn1nc(C(F)(F)F)c2c1OC[C@@H]1COC[C@H]1Nc1nc(ncc1Cl)N2 [Ex-1.20, (10aS,13aS)-8-chloro-1-ethyl-3-(trifluoromethyl)-1,4,10a,11,13a,14-hexahydro-10H,13H-5,9-(azeno)furo[3,4-k]pyrazolo[3,4-b][1]oxa[4,6,10]triazacyclotridecine]	9.42	
Cc1nn(C2CCC2)c2c1OC1COC[C@H]1CNc1nc(ncc1C(F)(F)F)N2 (single isomer, unassigned) [Ex-2.81, (11aR,14aS) or (11aS,14aR)-3-cyclobutyl-1-methyl-8-(trifluoromethyl)-3,4,10,11,11a,12,14,14a-octahydro-5,9-(azeno)furo[3,4-1]pyrazolo[4,3-b][1]oxa[4,6,10]triazacyclotridecine]	5.99	
(10aR,12aR)-8-chloro-3-methyl-1- (trifluoromethyl)-3,4,10,10a,11,12,12a,13- octahydro-5,9- (azeno)cyclobuta[k]pyrazolo[4,3- b][1]oxa[4,6,10]triazacyclotridecine [Ex-2.76]	9.47	
FC(F)(F)c1cnc2nc1NC1CCC1COc1c(C3CCOC3)nn(C3CCC3)c1N2 [Ex-2.65, (10aR,12aR)-3-cyclobutyl-1-((R)-(10aR,12aR)-3-cyclobutyl-1-((S)-(10aS,12aS)-3-cyclobutyl-1-((R)-(10aS,12aS)-3-cyclobutyl-1-((S)-tetrahydrofuran-3-yl)-8-(trifluoromethyl)-3,4,10,10a,11,12,12a,13-octahydro-5,9-(azeno)cyclobuta[k]pyrazolo[4,3-b][1]oxa[4,6,10]triazacyclotridecine]	6.59	
CCOC(=O)Cc1nn(C2CC2)c2c1OC[C@@H]1COC[C@H]1Nc1nc(ncc1C(F)(F)F)N2 [Ex-2.67, ethyl 2-((10aS,13aS)-3-cyclopropyl-8-(trifluoromethyl)-3,4,10a,11,13a,14-hexahydro-10H,13H-5,9-(azeno)furo[3,4-k]pyrazolo[4,3-b][1]oxa[4,6,10]triazacyclotridecin-1-yl)acetate]	9.45	
